Where a name gives a salt, the structure may show the parent alone. ± gives the standard deviation of the averaged measurements.
These compounds were tested on CHO-K1 (assay: benchmark concentration for 60% increase in hypodiploid frequency (BMC60); higher = less potent aneugen). Conditions: S9 metabolic activation: with S9.
Experimental: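 Benchmark concentration modelling (PROAST, Hill/exponential model families) of the 19-concentration flow-cytometric micronucleus assay in CHO-K1 cells, with and without rat liver S9. Only non-cytotoxic and adequate (relative survival >=40%) concentrations were used. BMR was a 30% increase in %MN (BMC30) or a 60% increase in %hypodiploid (BMC60) over control.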

| Compound | benchmark concentration |
| --- | --- |
| COC(=O)Nc1nc2ccccc2[nH]1 [Carbendazim] | 32 µM |
| CN(C)[C@@H]1C(=O)C(C(N)=O)=C(O)[C@@]2(O)C(=O)C3=C(O)c4c(O)cccc4[C@@](C)(O)[C@H]3[C@H](O)[C@@H]12 [Oxytetracycline hydrochloride] | 110 µM |
| Nc1cc(Cl)cc(C(=O)O)c1Cl [Chloramben] | 9.7 µM |

Same assay, conditions: S9 metabolic activation: without S9

| Compound | benchmark concentration |
| --- | --- |
| Cc1ccc(N(C)C)cc1 [N,N,4-Trimethylaniline] | 39 µM |
| COC(=O)Nc1nc2ccccc2[nH]1 [Carbendazim] | < 4.5 µM |
| CCN(CC)c1ccccc1 [N,N-Diethylaniline] | 77 µM |
| Cc1c(C)c2c(c(C)c1O)CCC(C)(COc1ccc(CC3SC(=O)NC3=O)cc1)O2 (stereo not given) [Troglitazone] | 14 µM |
| O=[N+]([O-])c1ccccc1 [Nitrobenzene] | 26 µM |
| CCCCC(CC)CO (stereo not given) [2-Ethyl-1-hexanol] | 56 µM |
| CC(C)NCC(O)c1ccc(O)c(O)c1 (stereo not given) [Isoproterenol hydrochloride] | 110 µM |
| O=C=NCCCCCCN=C=O [1,6-Diisocyanatohexane] | 100 µM |
| Cc1ccccc1O [o-Cresol] | 130 µM |
| O=[N+]([O-])c1ccc(Cl)cc1 [1-Chloro-4-nitrobenzene] | 120 µM |
| CCCCCCCCCCO [1-Decanol] | 120 µM |
| CC(=O)OCCC(C)C [3-Methylbutyl acetate] | 13 µM |
| O=S(=O)(O)c1ccc(N=Nc2c(O)ccc3cc(S(=O)(=O)O)ccc23)cc1 [FD&C Yellow 6] | 13 µM |
| Oc1ccccc1Cl [2-Chlorophenol] | 97 µM |
| Clc1cccc(Cl)c1 [1,3-Dichlorobenzene] | 160 µM |
| Nc1ccc(C(=O)O)cc1 [4-Aminobenzoic acid] | 110 µM |
| CN(C)c1ccccc1 [N,N-Dimethylaniline] | 43 µM |
| Cc1cn(C2CC(N=[N+]=[N-])C(CO)O2)c(=O)[nH]c1=O (stereo not given) [3-Azido-3-deoxythymidine] | 72 µM |
| ClC(Cl)(Cl)c1ccccc1 [Benzotrichloride] | 45 µM |
| CCN(CC)C(=O)SCc1ccc(Cl)cc1 [Thiobencarb] | 113 ± 110 µM |
| CCc1cccc(C)c1N(C(=O)CCl)C(C)COC (stereo not given) [Metolachlor] | 180 µM |
| CCOC(=O)C(C)(C)Oc1ccc(Cl)cc1 [Clofibrate] | 130 µM |
| Clc1ccc(Cl)c(Cl)c1 [1,2,4-Trichlorobenzene] | 100 µM |
| COC(=O)c1ccccc1C(=O)OC [Dimethyl phthalate] | 120 µM |

| Compound | benchmark concentration |
| --- | --- |
| Nc1ccc(Cc2ccc(N)cc2)cc1 [4,4'-Methylenedianiline] | 74 µM |
| CC(C)C(=O)Nc1ccc([N+](=O)[O-])c(C(F)(F)F)c1 [Flutamide] | 17 µM |
| O=C(Nc1ccc(Cl)cc1)Nc1ccc(Cl)c(Cl)c1 [Triclocarban] | < 4.5 µM |
| ClC1=C(Cl)C2(Cl)C3C(Cl)C(Cl)CC3C1(Cl)C2(Cl)Cl (stereo not given) [Chlordane] | 54 µM |
| Cc1ccc(N)c(N)c1 [3,4-Diaminotoluene] | 52 µM |
| Cc1ccc([N+](=O)[O-])cc1C [1,2-Dimethyl-4-nitrobenzene] | 89 µM |
| Cc1ccc(N)cc1O [5-Amino-2-methylphenol] | 5.3 µM |
| CCCCCCCCCC(=O)O [Decanoic acid] | 30 µM |
| CSC(C)(C)/C=N/O [Aldicarb oxime] | 40 µM |
| Clc1cccc(Cl)c1Cl [1,2,3-Trichlorobenzene] | 32 µM |
| ClC1=C(Cl)C2(Cl)C3C4CC(C5OC45)C3C1(Cl)C2(Cl)Cl (stereo not given) [Endrin] | < 4.5 µM |
| Cc1c(C(=O)O)c(O)cc2c1C(=O)c1c(O)c([C@@H]3O[C@H](CO)[C@@H](O)[C@H](O)[C@H]3O)c(O)c(O)c1C2=O [Carminic acid] | 13 µM |
| Oc1c(Cl)c(Cl)c(Cl)c(Cl)c1Cl [Pentachlorophenol] | 9 µM |
| Oc1ccc(Cl)cc1Cc1ccccc1 [Clorophene] | 34 µM |
| O=C(O)C(F)(F)C(F)(F)C(F)(F)C(F)(F)C(F)(F)C(F)(F)C(F)(F)F [PFOA] | 6.7 µM |
| Clc1cc(Cl)c(Cl)cc1Cl [1,2,4,5-Tetrachlorobenzene] | 110 µM |
| C/C=C\c1ccc(O)c(OC)c1 [Isoeugenol] | 72 µM |
| CC1(C)C(=O)N(Br)C(=O)N1Br [1,3-Dibromo-5,5-dimethylhydantoin] | 93 µM |
| C1CC2OC2CC1C1CO1 (stereo not given) [4-Vinyl-1-cyclohexene dioxide] | 35 µM |
| CCc1nc(N)nc(N)c1-c1ccc(Cl)cc1 [Pyrimethamine] | 49 µM |
| C/C=C/c1ccc(OC)cc1 [(E)-Anethole] | 35 µM |
| Cl[C@H]1[C@H](Cl)[C@@H](Cl)[C@H](Cl)[C@@H](Cl)[C@@H]1Cl [beta-Hexachlorocyclohexane] | 32 µM |
| CC(C)COC(=O)c1ccccc1C(=O)OCC(C)C [Diisobutyl phthalate] | 32 µM |
| c1ccc2n[nH]nc2c1 [1,2,3-Benzotriazole] | 93 µM |

| Compound | benchmark concentration |
| --- | --- |
| c1ccc2cc3ccccc3cc2c1 [Anthracene] | 51 µM |
| CCCCOCCOCCO [2-(2-Butoxyethoxy)ethanol] | 100 µM |
| c1ccc2[nH]c(-c3cscn3)nc2c1 [Thiabendazole] | 14.1 ± 7 µM |
| Cc1cccc(C)c1N [2,6-Dimethylaniline] | 87 µM |
| O=c1[nH]c(=O)[nH]c(=O)[nH]1 [Cyanuric acid] | 91 µM |
| CC(C)=CCCC(C)CCO (stereo not given) [Citronellol] | 72 µM |
| ClC(Cl)c1ccccc1 [Benzal chloride] | 91 µM |
| OC(Cn1cncn1)(Cn1cncn1)c1ccc(F)cc1F [Fluconazole] | 90 µM |
| OC(CCl)CCl [1,3-Dichloro-2-propanol] | 75 µM |
| C[C@]12CCC(=O)C=C1CC[C@@H]1[C@@H]2CC[C@]2(C)C(=O)CC[C@@H]12 [4-Androstene-3,17-dione] | 34 µM |
| O=C(O)c1ccccc1 [Benzoic acid] | 110 µM |
| OCCNCCO [Diethanolamine] | 84 µM |
| CC(=O)Nc1ccc(O)cc1 [Acetaminophen] | 36 µM |
| Nc1cc(Cl)cc(C(=O)O)c1Cl [Chloramben] | 110 µM |
| CC(C)C(=O)OCC(C)(C)C(OC(=O)C(C)C)C(C)C (stereo not given) [2,2,4-Trimethyl-1,3-pentanediol diisobutyrate] | 190 µM |
| O=NO [Sodium nitrite] | 77 µM |
| CC(=O)c1ccccc1 [Acetophenone] | 50 µM |
| COc1cc(C=O)ccc1O [4-Hydroxy-3-methoxybenzaldehyde] | 53 µM |
| CC(C)(C)OOC(C)(C)CCC(C)(C)OOC(C)(C)C [2,5-Dimethyl-2,5-di-(tert-butylperoxy)hexane] | 60 µM |
| COC(=O)CCCCC(=O)OC [Dimethyl adipate] | 110 µM |
| Cc1occc(=O)c1O [Maltol] | 100 µM |
| Nc1ccccc1N [1,2-Phenylenediamine] | 47 µM |
| CN(C)C(=S)S [Sodium dimethyldithiocarbamate] | 49 µM |
| Cc1ccc(Cl)cc1 [4-Chlorotoluene] | 60 µM |

Source: the supplement of paper PMC9151546
